Results reported in patent US20160257997A1, “METHODS FOR WHOLE-CELL ANALYSIS OF GRAM-POSITIVE BACTERIA” (AdvanDx, Inc., priority 2009, published 2016).

Tested on: MecA mRNA
Experiment: PNA FISH of MecA mRNA in permeabilized S. aureus (Examples 1-3)
Format: cell-based

“GCTATCGTGTCACAA (all peptide nucleic acid (PNA); fluorescein label, position not given here; listed as Staphylococcus aureus) [Probe 2, Flu-labeled PNA probe, methicillin-resistance]” was tested, and the “fluorescent staining of bacteria (FITC filter)” value (MRSA 43300, oxacillin-induced, FIG. 1 Slides B-D, Probes 1-5 794 nM combined, Probe 2 750 nM, Probe 6 750 nM) was “Green fluorescent bacteria were observed” and the “fluorescent staining of bacteria (FITC filter), competition control” value (MRSA 43300, Probe 2 300 nM in the presence of 16.6-fold excess (5000 nM) of biotin labeled Probe 7, FIG. 1 Slide E) was “No signal was observed”.
